The source of these data is patent US9566265B2, “Carbazole compounds and therapeutic uses of the compounds” (Incuron, LLC, priority 2008, dated 2017).

pEC50: −log10 of the molar value. Values after ≈ are worked out from the molar mass of the structure shown. Read-outs that look alike come from different tables or passages of the source.

Assay [1] concerns p53. Nature of the assay: p53 activation assay, p53 responsive luciferase reporter cell line. The assay is classed as cell-based, human. As to conditions: Homo sapiens, 16 h, HT1080-L or RCC45ConALuc reporter cells, 16 h; read-out: EC50 value (p53 activation).
Assay [2] deals with C. tropicalis. Nature of the assay: microbe, parasite or virus in culture. It counts as cell-based. The following applies: Candida tropicalis. From the text: Candida spp. strains: 20 Candida spp. clinical isolates and one laboratory control strain (C. albicans SC5314) was used in the study. In the collection were included:
2 C. tropicalis strains, one ATCC control strain (ATCC 750), and one echinocandin cross-resistant (T3) (11).

The test system of assay [3] is C. lipolytica. Nature of the assay: in vitro susceptibility CLSI M27A3, MIC. The assay is classed as cell-based. The following applies: Yarrowia lipolytica, strain M159, WT, Susceptible. An excerpt:
(§1) Other Candida spp. and genera: 1 C. rugosa (M83), 1 C. lipolytica (M159), C. lusitaniae (200450), 1 Cryptococcus neoformans (499), and 1 Debaryomyces hansenii.

For assay [4], the system named is C. lusitaniae. Nature of the assay: in vitro susceptibility CLSI M27A3, MIC. The assay is classed as cell-based. As to conditions: Clavispora lusitaniae, strain 200450, WT, Susceptible.
From the text: as §1

The subject of assay [5] is C. rugosa. Nature of the assay: in vitro susceptibility CLSI M27A3, MIC. The assay is classed as cell-based. The following applies: Diutina rugosa, strain M83, WT, Susceptible.
From the text: as §1

Assay [6] has as its system Cryptococcus neoformans. Nature of the assay: in vitro susceptibility CLSI M27A3, MIC. The assay is classed as cell-based. As to conditions: strain 499, WT, Susceptible.
From the text: as §1

The subject of assay [7] is Debaryomyces hansenii. Nature of the assay: in vitro susceptibility CLSI M27A3, MIC. The assay is classed as cell-based. As to conditions: strain 20124, WT, Susceptible.
From the text: as §1

Assay [8] relates to HB 101 E. coli. Nature of the assay: antibacterial cytotoxicity assay, gram(−) bacteria (OD600). The assay is classed as cell-based. The following applies: 48 hours, over a range of potencies, FIG. 13A.

As to `CCN(CC)CCn1c2ccc3c(c2c2c4c(ccc21)C(=O)CC4)CCC3=O` [Example 15], the pEC50 in assay [1] is 7.52. The MIC was 0.08 µM (≈ 0.03 µg/mL) in assay [2] (strain ATCC750, WT, Susceptible, read-out: MIC* (24 hs)); 0.16 µM (≈ 0.0599 µg/mL) in assay [2] (strain ATCC750, WT, Susceptible, read-out: MIC* (48 hs)); 0.04 µM (≈ 0.015 µg/mL) in assay [2] (strain T3, Fks1pS645S/P, Echinocandin cross-resistant, read-out: MIC* (24 hs)); 0.08 µM (≈ 0.03 µg/mL) in assay [2] (strain T3, Fks1pS645S/P, Echinocandin cross-resistant, read-out: MIC* (48 hs)); 0.02 µM (≈ 0.00749 µg/mL) in assay [3] (read-out: MIC* (24 hs)); 0.08 µM (≈ 0.03 µg/mL) in assay [3] (read-out: MIC* (48 hs)). The MIC came out at 0.04 µM (≈ 0.015 µg/mL) in assay [4] (read-out: MIC* (24 hs)); 0.16 µM (≈ 0.0599 µg/mL) in assay [4] (read-out: MIC* (48 hs)); 0.16 µM (≈ 0.0599 µg/mL) in assay [5] (read-out: MIC* (24 hs)); 0.66 µM (≈ 0.247 µg/mL) in assay [5] (read-out: MIC* (48 hs)); 0.02 µM (≈ 0.00749 µg/mL) in assay [6] (read-out: MIC* (24 hs)); 0.08 µM (≈ 0.03 µg/mL) in assay [6] (read-out: MIC* (48 hs)). For the same molecule, the MIC in assay [7] (read-out: MIC* (24 hs)) and in assay [7] (read-out: MIC* (48 hs)) was 0.16 µM (≈ 0.0599 µg/mL) in each case. In addition, in assay [8], the “antibacterial effect” value was “antibacterial effect”.

The term pEC50 denotes the EC50 on a negative log10 scale, so that one unit is a factor of ten.
